Reference: article PMC11316031 (EMBO Reports, 2024)

What was measured:
[1] = molecular target: T1, Arp2 (subunit of the Arp2/3 complex) (Homo sapiens, UniProt P61158+P61160); experiment: TIRF actin branching rate with GST-N-WASP-VCA-activated recombinant Arp2/[…]; also pyrene actin polymerisation; format: biochemical
T1 construct: gene ACTR2; recombinant human Arp2/3 iso-complex containing Arp3/ArpC1A/C5L; with Arp3 (ACTR3, P61158), within the Arp2/3 complex

[2] = molecular target: T2, Arp3 (subunit of the Arp2/3 complex) (Homo sapiens, UniProt P61158); experiment: as above; format: biochemical
T2 construct: gene ACTR3; recombinant human Arp2/3 iso-complex containing Arp3/ArpC1A/C5L; with Arp2/3 complex (Arp2, ArpC1A, ArpC2, ArpC3, ArpC4, ArpC5L)

IC50 [1] [µM]	IC50 [2] [µM]	Structure (SMILES)
19.9		Cc1[nH]c2ccccc2c1CCNC(=O)c1ccccc1F [CK-666]
	0.86	COc1ccc(N2C(=O)CSC2c2cccc(Br)c2)c(OC)c1 (centres unmarked) [CK-869]
